According to patent US20210161131A1, “cis-p-Menthane-1,8-Di-secondary Amine Compounds as well as Their Preparation Methods and Application in Weed Control” (RESEARCH INSTITUTE OF FORESTRY NEW TECHNOLOGY, CHINESE …, priority 2019, published 2021):

Tested on: barnyard grass seeds
Test: Petri dish seed germination method: inhibition of root and stem growth of barnyard grass
Assay type: in vivo
Settings: 96 hours incubation
Experimental: (§1) Step 2: Accurately weigh 1 mmol cis-p-menthane-1,8-di-Schiff base compounds and cis-p-menthane-1,8-di-secondary amine compounds respectively, dissolve each of them with 0.25 mL DMF, and add a drop of Tween 80 in each resulted solution. After being fully dissolved, each solution is transferred to a 100 mL volumetric flask respectively and then diluted to the mark with distilled water to obtain a solution with a concentration of 10 mmol/L as the mother liquor. The two-fold dilution method is used to prepare diluted solutions with a series of concentrations (the concentrations of DMF and Tween 80 in the diluted solutions are the same as those in the mother liquor).
(§2) Barnyard grass seeds are placed in a 28° C. incubator and are soaked in an appropriate amount of distilled water for 12 hours there. After the clean water is filtered out, the seeds are then placed in the 28° C. incubator for 24 hours to germinate. Spread 2 pieces of filter paper in each of several Petri dishes, and place 10 barnyard grass seeds with the same size in each dish. Repeat each treatment for three times The dishes are divided into two groups: test dishes and control dishes. Add into each test dish 10 mL of the sample solution with the corresponding concentration of the target compound, and add into each control dish the same amount of the mixture of water, DMF and Tween 80 as the blank control. Add 10 seeds to each of the dishes (both test dishes and control dishes), place them in an artificial climate incubator, and incubate them for 96 hours under a temperature of 28° C., an illumination of 5000 1×, a photoperiod of day:night=16:8 and a relative humidity of 70-80%. The experimental data is processed and analyzed with DPS software to calculate the inhibition rate (y) of cis-p-menthane-1,8-di-secondary amine compounds on the root growth or stem growth of barnyard grass seeds.
Wherein, y is the inhibition rate of root growth or stem growth (%), x0 is the root length or stem length of the control, and x1 is the root length or stem length of the sample.
as §1, with “Accurately” for “Step 2: Accurately”, “cis-p-menthane-1,8-bis-(4-chlorophenyl)Schiff” for “cis-p-menthane-1,8-di-Schiff”, “base” for “base compounds”, “cis-p-menthane-1,8-bis-(4-chlorobenzyl)amine” for “cis-p-menthane-1,8-di-secondary amine compounds”, “(5 mmol/L, 2.5 mmol/L, 1.25 mmol/L, 0.625 mmol/L, 0.3125 mmol/L and 0.1563 mmol/L; the” for “(the”
as §2, with “placed in a 30° C. incubator” for “placed in the 28° C. incubator”, “in each Petri dish,” for “in each of several Petri dishes,”, “each Petri dish, and place” for “several Petri dishes, and place”, “with the above corresponding concentration” for “with the corresponding concentration”, “with DPS software.” for “with DPS software to calculate the inhibition rate (y) of cis-p-menthane-1,8-di-secondary amine compounds on the root growth or stem growth of barnyard grass seeds.”

SMILES | inhibition rate on the root growth of barnyard grass seeds (0.15625 mmol/L) [%] | inhibition rate on the stem growth of barnyard grass seeds (0.15625 mmol/L) [%] | inhibition rate on the root growth of barnyard grass seeds (0.3125 mmol/L) [%] | inhibition rate on the stem growth of barnyard grass seeds (0.3125 mmol/L) [%] | inhibition rate on the root growth of barnyard grass seeds (0.625 mmol/L) [%] | inhibition rate on the stem growth of barnyard grass seeds (0.625 mmol/L) [%] | inhibition rate on the root growth of barnyard grass seeds (1.25 mmol/L) [%] | inhibition rate on the stem growth of barnyard grass seeds (1.25 mmol/L) [%] | inhibition rate on the root growth of barnyard grass seeds (2.5 mmol/L) [%] | inhibition rate on the stem growth of barnyard grass seeds (2.5 mmol/L) [%] | inhibition rate on the root growth of barnyard grass seeds (5 mmol/L) [%] | inhibition rate on the stem growth of barnyard grass seeds (5 mmol/L) [%]
CC1(NCc2ccco2)CCC(C(C)(C)NCc2ccco2)CC1 (stereo not drawn) [cis-p-menthane-1,8-bis(furan-2-methyl)amine] | 0 | 0 | 36.3 | 8.6 | 39.0 | 16.1 | 48.8 | 19.3 | 72.7 | 41.1 | 92.7 | 65.3
CC(C)(NCc1ccccn1)[C@H]1CC[C@@](C)(NCc2ccccn2)CC1 [cis-p-menthane-1,8-bis(pyridine-2-methyl)amine] | 18.9 | 23.8 | 20.5 | 26.4 | 33.8 | 30.1 | 61.0 | 46.6 | 95.8 | 65.3 | 100.0 | 88.0
CC1(NCc2cccnc2)CCC(C(C)(C)NCc2cccnc2)CC1 (stereo not drawn) [cis-p-menthane-1,8-bis(pyridine-3-methyl)amine] | 5.7 | 38.0 | 10.2 | 30.6 | 19.2 | 41.5 | 41.4 | 44.6 | 86.1 | 65.3 | 95.2 | 84.9
CC1(NCc2ccncc2)CCC(C(C)(C)NCc2ccncc2)CC1 (stereo not drawn) [cis-p-menthane-1,8-bis(pyridine-4-methyl)amine] | 19.0 | 28.6 | 37.9 | 34.5 | 40.6 | 32.7 | 71.5 | 53.5 | 91.2 | 71.3 | 96.5 | 86.7
CC1(NCc2ccc[nH]2)CCC(C(C)(C)NCc2ccc[nH]2)CC1 (stereo not drawn) [cis-p-menthane-1,8-bis(pyrrole-2-methyl)amine] | 1.7 | 15.4 | 60.5 | 26.5 | 87.7 | 28.6 | 93.1 | 48.2 | 91.9 | 71.5 | 94.4 | 78.3
CC1(NCc2cccs2)CCC(C(C)(C)NCc2cccs2)CC1 (stereo not drawn) [cis-p-menthane-1,8-bis(thiophen-2-methyl)amine] | 0.8 | 13.3 | 1.5 | 28.9 | 5.8 | 39.2 | 50.0 | 45.3 | 75.1 | 51.0 | 86.0 | 59.1
CC1(N=Cc2ccccc2C(F)(F)F)CCC(C(C)(C)N=Cc2ccccc2C(F)(F)F)CC1 (stereo not drawn) [cis-p-menthane-1,8-bis-(2-trifluoromethylbenzyl)Schiff base, reference compound] |  |  | 20.9 | 9 | 15.4 | 13.2 | 2.7 | 17.7 | 20.6 | 12.1 | 34.8 | 21.2
CC(C)(NCc1ccccc1C(F)(F)F)[C@H]1CC[C@@](C)(NCc2ccccc2C(F)(F)F)CC1 [cis-p-menthane-1,8-bis-(2-trifluoromethylbenzyl)amine] | 51.9 | 36.9 | 57.0 | 43.6 | 68.0 | 49.0 | 93. | 59.6 | 100 | 87.4 | 100 | 90.3
CC(C)(N=Cc1ccc(Br)cc1)[C@H]1CC[C@@](C)(N=Cc2ccc(Br)cc2)CC1 [cis-p-menthane-1,8-bis-(4-bromobenzyl)Schiff base, reference compound] |  |  | −3.2 | 6.5 | 28.5 | 19.6 | 46.8 | 42.3 | 72.6 | 39.3 | 69.4 | 55.9
CC(C)(NCc1ccc(Br)cc1)[C@H]1CC[C@@](C)(NCc2ccc(Br)cc2)CC1 [cis-p-menthane-1,8-bis-(4-bromobenzyl)amine] | 30.7 | 25.2 | 57.6 | 35.4 | 83.4 | 51.7 | 89.6 | 58.5 | 97.4 | 88.2 | 100.0 | 92.3
